Data from US11167039B2, “MET antibody drug conjugates” (priority 2016, dated 2021).
pEC50: −log10 of the molar value.

Legend:
HT-29 cells [1] = conditions: Strickler, J. H., et al., read-out: EC50 in a HT-29 killing assay; cited from earlier work
[2] = system: MET expressing tumor cells; conditions: reported, Strickler et al. 2016; cited from earlier work
[3] = system: pan-AKT phosphorylation (pAKT) in Caki-1 cells; assay: Phosphor-AKT bioassay for MET agonist activity in Caki-1 cells; type: cell-based; conditions: 5 μg/mL
Procedure: Because it has been reported that MET agonistic antibodies increased hepatocyte proliferation and toxicity, a phosphor-AKT assay may be used to test MET-ADCs for MET agonist activity. Briefly stated, Caki-1 cells may be starved overnight in serum-free medium with 0.1% BSA and then treated with ADCs or naked MET antibodies at 5 μg/mL for the desired durations. Cell lysates may be analyzed for phosphorylation of pan-AKT by MSD ELISA, for example.

HT-29 cells [4] = assay: HT-29 cell-killing assay; type: cell-based, human; conditions: HT-29 cells
Procedure: Therefore, the HT-29 cell line may be used to determine if test MET-ADCs can kill MET overexpressing tumor cells in vitro.
Briefly described, 2-3×10^3 cells/well in 100 μL of culture medium may be plated in 96 well plates and incubated overnight at 37° C., 5% CO2. The MET-ADCs, MET antibody(ies), control MMAE or control hIgG4 conjugated to MMAE with cysteine conjugation antibody(ies) may be diluted 1:3 in serum-free culture medium starting from 100 nM (final) in 50 μL as 3× concentrations to the HT-29 cells. At the end of an additional 5-6 days of cell growth at 37° C. in a humidified incubator with 5% CO2, the plates may be equilibrated to room temperature for 30 minutes and 100 μL/well of CellTiter-Glo® reagent (Promega Corp., Fitchburg, Wis.) may then be added to assess cell viability. Cell viability may be determined by measuring luminescence.
Various tumor cell lines and normal human cells may be tested for MET-ADC induced cell killing activity essentially as described above in Example 10 as assessed for MET receptor density. MET cell surface density was determined by indirect immunofluorescence staining of cell surface antigens on cultured cells using QIFIKIT (Dako). […] Following a forty-five minute incubation, cells may be incubated for 1 hour on ice with FITC conjugated antibody diluted 1:50 in FACS buffer. Then cells may be washed and receptor numbers may be determined by indirect immunofluorescence staining of the QIFIKIT beads using a Becton Dickinson LSRII flow cytometer.

[5] = system: HT-29 colon cancer tumor xenografts; assay: HT-29 mouse xenograft model; type: in vivo; conditions: separate experiment(s), data not shown
Procedure: Female athymic nude mice age 6- to 7-weeks old are available commercially, including from Harlan Laboratories (Indianapolis, Ind.). The mice are allowed to acclimate for one week and fed ad libitum on a normal low fat (4.5%) diet, which may be continued for the duration of the study. Tumor cells may be purchased from ATCC and may be cultured in cell culture media such as RPMI 1640 (Life Technologies) with L-glutamine, 25 mM HEPES supplemented with 10% FBS and 1 mM Na Pyruvate. Cells may be detached, washed with serum free medium and then resuspended at a final concentration of 50×10^6 cells/mL in serum free RPMI 1640. Tumor cells, approximately 5×10^6, may be injected subcutaneously in the rear flank of subject mice in a 1:1 mixture of serum free growth medium and Matrigel (Becton Dickinson, Bedford, Mass.). Tumor and body weight measurements may be performed twice weekly. Prior to treatment, mice can be randomized based on tumor size using a randomization algorithm. Treatments may be started when the average tumor volume reaches 100 mm^3. […]
MET-ADCs and control hIgG4-MMAE may be prepared in Phosphate Buffered Saline (PBS) prior to dose. Tumor size may be determined by caliper measurements. […] Tumor volume data can be transformed to a log scale to equalize variance across time and treatment groups. Log volume data can be analyzed with two-way repeated measures ANOVA by time and treatment using SAS PROC MIXED software (SAS Institutes Inc, Cary, N.C.). Treatment groups are compared with the specified control group at each time point.

Substance	pEC50 (HT-29 cells [1])	approximate threshold of MET cell surface molecules for sensitivity [2]	MET agonist activity (induction of pan-AKT phosphorylation) [3]	cell killing activity in HT-29 cells (HT-29 cells [4])	inhibition of HT-29 tumor growth [5]
ABBV-399	8.05	> 100,000			
MET-ADC #6: emibetuzumab conjugated with maleimidocaproyl-valine-citrulline-p-aminobenzoyloxycarbonyl-monomethyl auristatin E (Mal-C-vc-PABC-MMAE)			significant increased agonist activity	less active than MET-ADC #1	
Emibetuzumab			low to no agonist activity	no significant cell killing activity	did not inhibit HT-29 tumor growth
